Results from patent publication US20180200257A1, “METHODS FOR THE TREATMENT OF INFLAMMATORY DISORDERS” (Galapagos NV, priority 2015, published 2018).

Test system: Subjects With Active Crohn's Disease With Evidence of Mucosal Ulceration
Assay: Study 3 - Histopathology score
Format: in vivo, human
Settings: 200 mg, LOCF
From the text: Double-Blind, Randomized, Placebo-Controlled, Multi-Centre Study to Investigate the Efficacy and Safety of Compound 1 in Subjects With Active Crohn's Disease With Evidence of Mucosal Ulceration.
This is a double-blind, randomized, placebo-controlled, multi-centre Phase 2 study to investigate the efficacy and safety of Compound 1 administered once daily for the treatment of active CD with evidence of mucosal ulceration. The pharmacokinetics (including a PK substudy) and pharmacodynamics of Compound 1 and metabolite in CD will also be characterised.
A total of 180 eligible subjects will be randomized to receive Compound 1 or placebo in addition to their stable background treatment (eg, corticosteroids, aminosalicylates, or CD-related antibiotics). The study will consist of 2 parts, with total treatment duration of 20 weeks. Randomization in Part 1 will be stratified according the subject's previous anti-TNF exposure/response, CRP level at Screening, and oral corticosteroid use at visit Day −1.
After the first 10 weeks of treatment in Part 1, patients will be re-randomized for Part 2 as shown in the diagram below and will be stratified according to the subject's clinical response, previous anti-TNF exposure/response, and oral corticosteroid use at visit Day -1.
Histopathology data is collected from patients biopsy, and evaluated according to the procedure reported in D'haens et al., 1998.

[1] = Anti-TNF experienced non-responders
[2] = baseline corticosteroid use: with steroids
[3] = baseline corticosteroid use: without steroids

## O=C(Nc1nc2cccc(-c3ccc(CN4CCS(=O)(=O)CC4)cc3)n2n1)C1CC1 [Compound 1, cyclopropanecarboxylic acid {5-[4-(1,1-dioxo-thiomorpholin-4-ylmethyl)-phenyl]-[1,2,4]triazolo[1,5-a]pyridin-2-yl}-amide]
Anti-TNF Naïve
  Overall total score mean, % CFB at week 10: −14%
  Overall total score mean, CFB at week 10: −3.9
  Overall total score mean, baseline: 20.3
  Overall total score mean, week 10: 16.1
[1]
  Overall total score mean, % CFB at week 10: −7%
  Overall total score mean, CFB at week 10: −3.2
  Overall total score mean, baseline: 25.0
  Overall total score mean, week 10: 21.6
[2]
  Overall total score mean, % CFB at week 10: −15%
  Overall total score mean, CFB at week 10: −4.3
  Overall total score mean, baseline: 24.9
  Overall total score mean, week 10: 20.3
[3]
  Overall total score mean, % CFB at week 10: −5%
  Overall total score mean, CFB at week 10: −2.7
  Overall total score mean, baseline: 20.7
  Overall total score mean, week 10: 17.9
overall
  Overall total score mean, % CFB at week 10: −10%
  Overall total score mean, CFB at week 10: −3.5
  Overall total score mean, baseline: 22.8
  Overall total score mean, week 10: 19.1
Screening CRP ≤ 10 ml/L
  Overall total score mean, % CFB at week 10: −20%
  Overall total score mean, CFB at week 10: −4.8
  Overall total score mean, baseline: 21.8
  Overall total score mean, week 10: 17.1
Screening CRP ≥ 10 mg/L
  Overall total score mean, % CFB at week 10: 4%
  Overall total score mean, CFB at week 10: −1.8
  Overall total score mean, baseline: 24.3
  Overall total score mean, week 10: 21.8
